According to paper PMC10108276, “Siderophore‐Linked Ruthenium Catalysts for Targeted Allyl Ester Prodrug Activation within Bacterial Cells” (Chemistry (Weinheim an Der Bergstrasse, Germany), 2022):
Converted amounts (≈) assume the structure as drawn. Read-outs that look alike come from different tables or passages of the source.

Assays:
HeLa = experiment: MTT-based proliferation assay, HeLa; type: cell-based, human; conditions: 48 h
Source text: (§1) 7. Cytotoxicity against Mammalian Cells
(§2) 7.1. Cell viability assays for Moxi, C-Moxi and Ru-s4
(§3) Dulbecco’s Modified Eagle’s Medium (DMEM: [+] 4.5 g/L D-Glucose, L-Glutamine; [-]
(§4) Pyruvate), containing 10% fetal calf serum, 1% penicillin and streptomycin, was used
(§5) as growth medium for HeLa cells. DMEM ([+] 1 g/L D-Glucose; [+] Pyruvate),
(§6) containing 10% fetal calf serum, 1% penicillin and streptomycin, was respectively used
(§7) for GM5657 cells. HeLa and GM5657 cells were detached from the wells with trypsin
(§8) and EDTA, harvested by centrifugation and resuspended in the respective cell culture
(§9) medium. The assays were carried out on 96 well plates with a density of 6000 cells
(§10) per well. After 24 h of incubation at 37°C and 10% CO2, the cells were treated with
(§11) Moxi, C-Moxi and Ru-s4 (constant DMSO concentrations of 0.5%) with a final volume
(§12) of 200 µL per well. For a negative control, one series of cells were only treated with
(§13) 0.5% DMSO, and for a positive control, one series was treated with cisplatin. After 48
(§14) h of incubation, 50 µL PBS containing MTT (2.5 mg/mL) was added. The cells were
(§15) incubated for an additional 2 h. Afterwards, the medium was removed, and 200 µL of
(§16) DMSO were added. The formazan crystal absorption was measured at 550 nm, using
(§17) a reference wavelength of 650 nm. Each assay was carried out in triplicates (three
(§18) independent experiments) for each cell line, Table S3.

GM5657 = experiment: MTT-based proliferation assay, GM5657; type: cell-based, human; conditions: 48 h
Source text: as §1, §2, §3, §4, §5, §6, §7, §8, §9, §10, §11, §12, §13, §14, §15, §16, §17, §18

E. coli K12 (BW25113) [1] = experiment: prodrug incubation experiment: C-moxi preloading, washing, catalyst addition (18 h); conditions: substrate at upper nontoxic concentration
E. coli K12 (BW25113) [2] = experiment: antibacterial activity (dosage-response, 24 h) under iron-limited, micro-aerobic conditions
E. coli K12 (BW25113) [3] = experiment: catalyst-prodrug co-addition growth assay (24 h) with siderophore controls; conditions: without C‐moxi, MHII + 200 μM bpy, 2 % O2, 24 h
E. coli K12 (BW25113) [4] = experiment: effect of catalyst-siderophore conjugates on bacterial growth (dose-response, 24 h); conditions: at 10 μM, MHII + 200 μM bpy, 2 % O2, 24 h
E. coli K12 (BW25113) [5] = experiment: prodrug uptake assay (incubation, HPLC of extracellular and wash samples); type: cell-based, Escherichia coli
[6] = solubility as observed in the assays; type: physicochemical
[7] = Mean of three runs, tested range 0.05–100 μM
[8] = MHII + 200 μM bpy, 2 % O2, 37 °C, 24 h
[9] = C-moxi 10 µM, relative to 'no cell' controls

SMILES	IC50 (HeLa; [7]) [µM]	IC50 (HeLa; Run 2) [µM]	IC50 (HeLa; Run 3) [µM]	IC50 (GM5657; [7]) [µM]	IC50 (GM5657; Run 2) [µM]	IC50 (GM5657; Run 3) [µM]	effect on growth relative to the no addition control, substance alone (E. coli K12 (BW25113) [3])	further results
COc1c(N2C[C@@H]3CCCN[C@@H]3C2)c(F)cc2c(=O)c(C(=O)O)cn(C3CC3)c12 [Moxi, moxifloxacin]	> 100	> 100	> 100	> 100	> 100	> 100		IC50 (HeLa; Homo sapiens, Run 1): > 100 µM; IC50 (GM5657; Homo sapiens, Run 1): > 100 µM; difference between C‐moxi and DMSO incubations (in words) (E. coli K12 (BW25113) [1]): no significant difference between incubations; concentrations at which no antibacterial activity is observed (E. coli K12 (BW25113) [2]; [8]): < 10 nM
O=C(O)c1cccc(O)c1O [DHB, 2,3‐dihydroxybenzoic acid]							improve growth	
O=C(NCCCC[C@H](NC(=O)c1cccc(O)c1O)C(=O)O)c1cccc(O)c1O [azotochelin]							improve growth	
[Cl][Fe]([Cl])[Cl] [FeCl3]								change of overall growth compared to no addition (E. coli K12 (BW25113) [4]): tenfold
N.N.[Cl][Pt][Cl] [Cisplatin, cisplatin]	17	20.6	17.8	18.8	18	18.9		IC50 (HeLa; Run 1): 12.6 µM; IC50 (GM5657; Run 1): 19.5 µM
CC(=O)N(O)CCCCCNC(=O)CCC(=O)N(O)CCCCCNC(=O)CCC(=O)N(O)CCCCCN [DFO, desferrioxamine B]							does not improve growth	
O=C(O)CC(O)(CC(=O)O)C(=O)O [citrate]							improve growth	
C=CCOC(=O)c1cn(C2CC2)c2c(OC)c(N3C[C@@H]4CCCN[C@@H]4C3)c(F)cc2c1=O [C‐moxi]	> 100	> 100	> 100	> 100	> 100	> 100		Remainder (E. coli K12 (BW25113) [5]; C-moxi 10 µM, 100 % minus extracellular and wash): 16.4%; Uptake (E. coli K12 (BW25113) [5]; C-moxi 10 µM, incubation OD600 0.1): 3.31 nmol OD600-1; Extracellular (E. coli K12 (BW25113) [5]; [9]): 82.7%; Wash (E. coli K12 (BW25113) [5]; [9]): 0.9%; internalisation (bacterial uptake) of prodrug (E. coli K12 (BW25113) [5]; C‐moxi added at 10 μM, 15 min at 37 °C, exponential growth, iron-limited, micro-aerobic): 16%; IC50 (HeLa; Homo sapiens, Run 1): > 100 µM; IC50 (GM5657; Homo sapiens, Run 1): > 100 µM; solubility ([6]; bacterial growth assay medium, read-out: solubility limit): 500 µM (≈ 221 µg/mL); concentrations at which no antibacterial activity is seen (E. coli K12 (BW25113) [2]; [8]): < 10 µM; times less toxic than the parent antibacterial Moxi (E. coli K12 (BW25113) [2]; bacterial assays, E. coli K12): ~300
C=CCOC(=O)N1CCC[C@H]2CN(c3c(F)cc4c(=O)c(C(=O)O)cn(C5CC5)c4c3OC)C[C@H]21 [N‐moxi]								solubility ([6]; 10 % DMSO in aqueous MOPS buffer, HPLC kinetics): poor solubility; concentrations at which no antibacterial activity is seen (E. coli K12 (BW25113) [2]; [8]): < 10 µM
